# From US20240228488A1 (TAKEDA PHARMACEUTICAL COMPANY LIMITED, priority 2021, published 2024)
# Target: human activated kallikrein enzyme (Homo sapiens, UniProt P03952)
# Experiment: Plasma kallikrein inhibition, fluorogenic PFR-AMC substrate, 500 pM activated kallikrein format
# Format: biochemical
# Conditions: 500 pM activated kallikrein, 300 uM PFR-AMC, 30 min preincubation, 10 min reaction; read-out: Primary Dose Response Assay: Average EC50
# Procedure, shortened: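 Fluorogenic readout (ex 380 / em 460 nm) after 10 min room-temperature reaction with 300 uM Pro-Phe-Arg-AMC substrate, following 30 min preincubation of inhibitors with 500 pM enzyme. Buffer: Tris pH 7.5, EDTA, NaCl, PEG-400, Triton X-100. Values given as EC50 ranges.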
# Sequence of human activated kallikrein enzyme (P03952 391-638 limits assumed): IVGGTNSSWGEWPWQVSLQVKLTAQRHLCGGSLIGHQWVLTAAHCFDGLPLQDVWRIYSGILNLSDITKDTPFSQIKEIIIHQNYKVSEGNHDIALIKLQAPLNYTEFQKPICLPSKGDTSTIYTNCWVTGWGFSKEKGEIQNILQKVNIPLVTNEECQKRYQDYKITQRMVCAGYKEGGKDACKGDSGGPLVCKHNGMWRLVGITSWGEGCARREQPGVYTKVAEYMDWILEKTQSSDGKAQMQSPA
# Sequence of human activated kallikrein enzyme (P03952 20-390 partner limits assumed): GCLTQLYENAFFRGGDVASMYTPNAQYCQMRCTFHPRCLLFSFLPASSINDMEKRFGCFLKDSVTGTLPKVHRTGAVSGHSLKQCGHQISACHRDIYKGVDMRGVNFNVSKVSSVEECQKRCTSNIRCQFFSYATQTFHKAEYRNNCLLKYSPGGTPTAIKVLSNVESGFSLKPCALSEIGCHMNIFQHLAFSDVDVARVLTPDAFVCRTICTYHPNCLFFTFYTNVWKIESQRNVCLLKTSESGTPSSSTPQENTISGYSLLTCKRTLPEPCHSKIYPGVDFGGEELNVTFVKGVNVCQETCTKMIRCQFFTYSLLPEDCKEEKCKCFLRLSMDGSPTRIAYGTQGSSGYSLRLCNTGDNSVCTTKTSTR
row,EC50 [nM],SMILES
1,10 to 100,"Cc1ccnc([C@H]2C[C@@H]2C(=O)Nc2cc(NC(c3cn4cc(C5CC5)cc(N5CC(=O)N(C)C5=O)c4n3)C(F)(F)F)ncn2)n1 (stereo partly drawn) [Example 370, (1S,2S)-N-(6-((1-(6-cyclopropyl-8-(3-methyl-2,4-dioxoimidazolidin-1-yl)imidazo[1,2-a]pyridin-2-yl)-2,2,2-trifluoroethyl)amino)pyrimidin-4-yl)-2-(4-methylpyrimidin-2-yl)cyclopropane-1-carboxamide]"
2,100 to 1000,"O=C(Nc1cc(OCc2cn3cc(C4CC4)ccc3n2)ncn1)[C@H]1C[C@@H]1c1cccc(Cl)c1 (racemic) [Example 104, rac-(1S*,2S*)-2-(3-chlorophenyl)-N-(6-((6-cyclopropylimidazo[1,2-a]pyridin-2-yl)methoxy)pyrimidin-4-yl)cyclopropane-1-carboxamide]"
3,100 to 1000,"O=C(Nc1cc(NCc2cn3cc(C4CC4)ccc3n2)ncn1)[C@H]1C[C@@H]1c1cc(Cl)cnn1 (racemic) [Example I-178, rac-(1S*,2S*)-2-(5-chloropyridazin-3-yl)-N-(6-(((6-cyclopropylimidazo[1,2-a]pyridin-2-yl)methyl)amino)pyrimidin-4-yl)cyclopropane-1-carboxamide]"
4,10 to 100,"Cc1ccnc([C@H]2C[C@@H]2C(=O)Nc2cc(N3C[C@@H](O)C[C@@H]3c3cn4cc(C5CC5)ccc4n3)ncn2)c1F (relative stereo) [Example 542, rac-(1S*,2S*)-N-(6-((2R,4S)-2-(6-cyclopropylimidazo[1,2-a]pyridin-2-yl)-4-hydroxypyrrolidin-1-yl)pyrimidin-4-yl)-2-(3-fluoro-4-methylpyridin-2-yl)cyclopropane-1-carboxamide]"
5,< 1,"Cc1ccnc([C@H]2C[C@@H]2C(=O)Nc2ncc(CO)c(OCc3cn4cc(C5CC5)cc(N5CC(=O)N(C)C5=O)c4n3)n2)n1 [Example 664, (1S,2S)—N-(4-((6-cyclopropyl-8-(3-methyl-2,4-dioxoimidazolidin-1-yl)imidazo[1,2-a]pyridin-2-yl)methoxy)-5-(hydroxymethyl)pyrimidin-2-yl)-2-(4-methylpyrimidin-2-yl)cyclopropane-1-carboxamide]"
6,10 to 100,"O=C(Nc1cc(NCc2cn3cc(C4CC4)ccc3n2)ccn1)[C@@H]1C[C@]12C(=O)Nc1ccc(Cl)cc12 (racemic) [Example 514, rac-(1R*,2S*)-5′-chloro-N-(4-(((6-cyclopropylimidazo[1,2-a]pyridin-2-yl)methyl)amino)pyridin-2-yl)-2′-oxospiro[cyclopropane-1,3′-indoline]-2-carboxamide]"
7,1 to 10,"O=C(Nc1cc(NCc2cn3cc(Cl)ccc3n2)ccn1)[C@H]1C[C@@H]1c1cccc(Cl)c1 [Example I-253, (1S,2S)-N-(4-(((6-chloroimidazo[1,2-a]pyridin-2-yl)methyl)amino)pyridin-2-yl)-2-(3-chlorophenyl)cyclopropane-1-carboxamide]"
8,< 1,O=C(Nc1cc(NCc2cn3cc(C4CC4)cc(N4CCCS4(=O)=O)c3n2)ccn1)[C@H]1C[C@@H]1c1cccc(Cl)c1 [Example 121]
9,10 to 100,"COc1ccc(CN2C(=O)CN(c3cc(C4CC4)cn4cc(CNc5ccnc(NC(=O)[C@H]6C[C@@H]6c6cccc(Cl)c6)c5)nc34)C2=O)cc1 [Example I-22, (1S,2S)-2-(3-chlorophenyl)-N-(4-(((6-cyclopropyl-8-(3-(4-methoxybenzyl)-2,4-dioxoimidazolidin-1-yl)imidazo[1,2-a]pyridin-2-yl)methyl)amino)pyridin-2-yl)cyclopropane-1-carboxamide]"
10,< 1,"Cc1ccnc([C@H]2C[C@@H]2C(=O)Nc2cc(OC(C)c3cn4cc(C5CC5)cc(N5CCOC5=O)c4n3)cnn2)n1 (stereo partly drawn) [Example 37, (1S,2S)-N-(5-(1-(6-cyclopropyl-8-(2-oxooxazolidin-3-yl)imidazo[1,2-α]pyridin-2-yl)ethoxy)pyridazin-3-yl)-2-(4-methylpyrimidin-2-yl)cyclopropane-1-carboxamide]"
11,100 to 1000,"O=C(Nc1cc(NCc2cn3cc(C4CC4)ccc3n2)ccn1)[C@@H]1C[C@H]1c1cccc(Cl)c1 (single isomer, unassigned) [Example 116]"
